According to patent US4737487A, “VIP type peptides” (Beecham Group p.l.c., priority 1984, dated 1988):
Where a SMILES comes first, the peptide text is derived from it. [ ]: non-standard residue; d: D form. Nle = CCCC[C@H](N)C(=O)O

Columns and labels:
[1] = test system: proximal duodenum acid disposal capacity; test: Acid disposal capacity of the rat proximal duodenum (anti-ulcer activity); type: in vivo; conditions: significance P<0.05
Description: Anti-ulcer activity may be related to the enhanced capacity to dispose of gastric acid. Acid disposal capacity may be enhanced by increased intestinal secretions and enhanced acid disposal capacity is believed to be useful in the treatment of peptic ulcer disease. Method for estimating the acid disposal capacity of the rat proximal duodenum Male Wistar rats, 180-250 g bodyweight, fasted overnight, are anaesthetized with urethane (150 mg/100 g bodyweight i.m.). The trachea is cannulated, and a gastric cannula, 0.5 cm i.d., 3 cm long, is inserted into the non-glandular forestomach via a mid-line abdominal incision. The intragastric cannula is exteriorized via a stab wound in the body wall. A triple lumen catheter, 0.3 cm o.d., is passed via the gastric cannula through the pylorus. The duodenum is ligated 1 cm below the pylorus, and the pylorus ligated around the cannula, thus creating a 1 cm proximal duodenal pouch excluding pancreatic and biliary secretions. The two ligatures enclosing the duodenal pouch are placed so as to avoid occluding the blood supply to the duodenal segment. Gastric secretions are allowed to drain freely from the gastric cannula. […] Outflow pH is recorded throughout the experiment. […] A group size of 6 animals or larger is used and the effect of compounds on the output pH compared to control data determined. […]

[2] = test system: spontaneous motility of proximal colon; test: Colonic motility in vivo: intraluminal pressure recording in anaesthetised rat; conditions: urethane-anaesthetised male Wistar rats; intravenous administration; 3 μmol/kg
Description: Male albino rats, Wistar strain (Charles River UK) 300-500 g were anaesthetised with urethane. A segment of proximal colon was prepared for intraluminal pressure recording after the method of Maggi and Meli (Maggi, C. A. and Meli, A. (1982), J. Pharmacol. Methods 8, 39-46). The activity of the compound (V) was assessed from its action on the spontaneous motility of the preparation after intravenous administration.

[3] = test system: spontaneous contractile responses of circular muscle from the proximal colon; test: Colonic motility in vitro: isolated circular muscle of rat proximal colon; type: cell-based; conditions: rat proximal colon circular muscle in Krebs solution, isolated tissue bath
Description: Segments of circular muscle cut from the proximal colon of rats were mounted in Krebs solution in isolated tissue baths after the methods of Couture et al. (Couture R. et al. (1981), Can. J. Physiol. Pharmacol., 59, 957-964; and Couture R. et al., (1982), Pharmacol., 24, 230-242). The activity of the compound V was assessed from the effect on the spontaneous contractile responses generated by this tissue.

Structure (SMILES) | acid disposal (output pH compared to control) ([1]; 30 nmol/kg/h i.v. infusion, input pH 2.5 on first pass) | acid disposal (output pH compared to control) ([1]; 150 nmol/kg/h i.v. infusion, input pH 3 and 2.5 on first pass and input pH 2.5 on second pass) | action on the spontaneous motility of the proximal colon preparation [2] | ED50, effect on spontaneous contractile responses [3]
CCCC[C@H](NC(=O)[C@H](CCC(N)=O)NC(=O)[C@@H](N)CCCCN)C(=O)N[C@@H](C)C(=O)N[C@@H](CC(C)C)C(=O)N[C@@H](CCCCN)C(N)=O [Example 4, H-Lys-Gln-Nle-Ala-Leu-Lys-NH2.Acetate] (H-KQ[Nle]ALK-NH2) | significant increase | significant increase |  | 
CCCC[C@H](NC(=O)[C@H](CCC(N)=O)NC(=O)[C@@H](N)CCCCN)C(=O)N[C@@H](C)C(=O)N[C@H](C(=O)N[C@@H](CCCCN)C(N)=O)C(C)C [V, H-Lys-Gln-Nle-Ala-Val-Lys-NH2] (H-KQ[Nle]AVK-NH2) |  |  | active | 10^-5 M
